In one test the target is T1, CDK1:Cyclin-B (Homo sapiens, UniProt P06493).
T1 construct: purchased New England Biolabs, Beverly, Mass; 6020; host or cells: insect cells
In words: CDK1 Screening Assay. The test is classed as biochemical.

Test [1] deals with T2, rat VEGF-R2 kinase domain (Rattus norvegicus, UniProt O08775).
T2 construct: amino acids 786-1343 of the rat VEGF-R2 kinase domain; polyhistidine (N)
In words: VEGF-R2 Screening Assay. The test is classed as biochemical.

For a further test, the target named is T3, murine Aurora-A (Mus musculus, UniProt P97477).
T3 construct: replaced with the full length protein encoding the murine Aurora-A; made in house; host or cells: sf9 insect cells
T3 sequence (P97477 1-395): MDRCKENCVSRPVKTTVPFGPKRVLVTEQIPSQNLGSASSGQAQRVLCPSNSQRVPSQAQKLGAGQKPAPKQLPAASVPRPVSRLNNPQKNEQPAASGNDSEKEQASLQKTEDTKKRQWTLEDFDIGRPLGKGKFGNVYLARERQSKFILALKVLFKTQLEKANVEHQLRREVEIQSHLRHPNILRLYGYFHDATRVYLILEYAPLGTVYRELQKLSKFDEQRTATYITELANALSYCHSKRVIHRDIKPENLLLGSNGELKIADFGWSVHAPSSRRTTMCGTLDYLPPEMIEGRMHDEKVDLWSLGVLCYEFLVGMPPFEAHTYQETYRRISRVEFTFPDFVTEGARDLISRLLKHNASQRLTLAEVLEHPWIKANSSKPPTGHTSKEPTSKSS
In words: Aurora-A Screening Assay. Format: biochemical.

The next test has as its target T4, HER2 cytoplasmic domain (Homo sapiens, UniProt P04626).
T4 construct: polyhistidine (N)
In words: HER2 Kinase Screening Assay. Format: biochemical. The conditions noted are these: > means no observed 50% inhibition at the indicated test concentration; ~ means approximately 50% inhibition at that concentration.

Test [2] has as its system HeLa cervical adenocarcinoma. In words: Inhibition of in vitro cell proliferation (HeLa).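 Also: cells exposed to compound for 24 h, then labelled 24 h with methyl 14C-thymidine, with uptake into DNA counted by scintillation against DMSO-only control wells.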 The test is classed as cell-based, human. The settings on record: 14C-thymidine incorporation. (In general: Incorporation of labelled thymidine or its analogues reports DNA synthesis.)
In another test the test system is HCT-116 colon carcinoma. In words: Inhibition of in vitro cell proliferation (HCT116).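 Also: cells exposed to compound for 24 h, then 14C-thymidine added for a further 24 h and its uptake into DNA counted by scintillation, DMSO-only wells as control.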 Format: cell-based, human.
The next test has as its system A375 malignant melanoma. In words: Inhibition of in vitro cell proliferation (A375).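 Also: cells plated for 24 h, given compound for 24 h, then labelled with 14C-thymidine for another 24 h, with DMSO-only wells as control and counts read by scintillation.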 The test is classed as cell-based, human.
Setting [3] is: > means no observed 50% inhibition at the indicated test concentration, ~ means approximately 50% inhibition at that concentration, read-out: IC50 VEGF-R2.
Setting [4] is: Homo sapiens, HCT-116, 14C-thymidine incorporation.
The mark [5] stands for this setting: Homo sapiens, A-375, 14C-thymidine incorporation.
Where [6] appears, read: > means no observed 50% inhibition at the indicated test concentration, ~ means approximately 50% inhibition at that concentration.

Like-named read-outs stand apart in the source and are kept apart here.

T1 sequence (P06493 whole entry): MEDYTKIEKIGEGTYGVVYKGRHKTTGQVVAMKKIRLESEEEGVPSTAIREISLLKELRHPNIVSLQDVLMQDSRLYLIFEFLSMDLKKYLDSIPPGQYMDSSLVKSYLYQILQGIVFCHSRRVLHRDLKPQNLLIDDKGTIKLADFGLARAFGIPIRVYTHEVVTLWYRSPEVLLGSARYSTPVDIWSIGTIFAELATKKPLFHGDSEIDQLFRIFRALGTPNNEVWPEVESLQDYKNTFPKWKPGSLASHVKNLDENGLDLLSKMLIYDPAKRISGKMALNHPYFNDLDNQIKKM
T1 sequence (P14635 whole entry partner): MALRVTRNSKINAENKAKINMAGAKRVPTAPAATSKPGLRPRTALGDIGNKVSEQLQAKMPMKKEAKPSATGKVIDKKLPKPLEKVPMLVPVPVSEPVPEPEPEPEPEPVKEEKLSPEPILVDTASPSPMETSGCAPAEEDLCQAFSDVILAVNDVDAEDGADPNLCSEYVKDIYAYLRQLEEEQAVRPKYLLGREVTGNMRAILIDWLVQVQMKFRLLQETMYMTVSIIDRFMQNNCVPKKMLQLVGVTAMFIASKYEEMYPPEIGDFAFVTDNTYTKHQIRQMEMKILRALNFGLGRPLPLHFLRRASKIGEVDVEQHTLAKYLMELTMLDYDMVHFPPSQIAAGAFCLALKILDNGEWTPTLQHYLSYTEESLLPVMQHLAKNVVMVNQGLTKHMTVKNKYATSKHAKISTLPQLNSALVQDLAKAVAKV
T2 sequence (O08775 786-1343): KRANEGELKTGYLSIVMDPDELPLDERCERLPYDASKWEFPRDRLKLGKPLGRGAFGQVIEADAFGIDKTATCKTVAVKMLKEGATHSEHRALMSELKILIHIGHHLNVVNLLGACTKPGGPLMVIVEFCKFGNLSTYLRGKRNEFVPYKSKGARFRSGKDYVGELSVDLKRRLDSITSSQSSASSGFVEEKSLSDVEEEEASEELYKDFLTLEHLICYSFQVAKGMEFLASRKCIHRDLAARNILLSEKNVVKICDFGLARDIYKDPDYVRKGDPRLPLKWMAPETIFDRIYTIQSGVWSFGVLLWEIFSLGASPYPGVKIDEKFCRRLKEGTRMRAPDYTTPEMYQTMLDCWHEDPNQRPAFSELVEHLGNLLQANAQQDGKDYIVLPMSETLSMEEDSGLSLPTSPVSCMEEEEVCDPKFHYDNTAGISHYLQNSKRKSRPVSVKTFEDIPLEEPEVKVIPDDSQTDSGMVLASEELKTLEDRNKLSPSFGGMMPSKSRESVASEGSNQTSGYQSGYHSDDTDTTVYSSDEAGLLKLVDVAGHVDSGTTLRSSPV
T4 sequence (P04626 676-1255 limits assumed): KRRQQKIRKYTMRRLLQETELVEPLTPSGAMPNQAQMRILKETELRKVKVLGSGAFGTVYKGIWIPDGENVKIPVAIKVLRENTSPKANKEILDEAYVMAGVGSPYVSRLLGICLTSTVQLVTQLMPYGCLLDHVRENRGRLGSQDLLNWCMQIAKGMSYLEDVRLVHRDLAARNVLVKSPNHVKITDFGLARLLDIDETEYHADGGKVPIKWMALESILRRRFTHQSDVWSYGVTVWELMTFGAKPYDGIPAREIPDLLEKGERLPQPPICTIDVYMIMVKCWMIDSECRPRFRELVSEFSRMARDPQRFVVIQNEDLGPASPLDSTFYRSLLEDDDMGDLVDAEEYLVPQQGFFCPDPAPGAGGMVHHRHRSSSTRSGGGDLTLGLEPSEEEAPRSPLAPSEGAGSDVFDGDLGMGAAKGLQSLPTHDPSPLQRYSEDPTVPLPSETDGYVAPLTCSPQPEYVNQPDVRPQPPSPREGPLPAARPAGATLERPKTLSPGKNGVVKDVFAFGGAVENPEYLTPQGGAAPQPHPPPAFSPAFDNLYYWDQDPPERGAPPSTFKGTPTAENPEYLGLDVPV

Broadly, the IC50 is the concentration that inhibits the measured activity by half. On to `CCCNC(=O)n1c(C)cc2cc(Oc3ncnc(N)c3C=NOC)ccc21` [Cpd 48, 5-[6-amino-5-(methoxyimino-methyl)-pyrimidin-4-yloxy]-2-methyl-indole-1-carboxylic acid propylamide], for which the IC50 at CDK1:Cyclin-B is greater than 100 µM; in test [1] (setting [3]), 0.0076 µM; at murine Aurora-A, greater than 100 µM; against HER2 cytoplasmic domain it was greater than 10 µM; in test [2] (Homo sapiens), 3.37 µM; in the test on HCT-116 colon carcinoma (setting [4]) it was 1.22 µM. The molecule also yielded an IC50 in the test with A375 malignant melanoma (setting [5]) of 1.15 µM.
With `CON=Cc1c(N)ncnc1Oc1ccc(OCc2ccccc2)cc1` [Cpd 110, 4-amino-6-[4-(benzyloxy)phenoxy]-5-pyrimidinecarboxaldehyde O-methyloxime], the half-maximal inhibitory concentration (IC50) on CDK1:Cyclin-B was greater than 100 µM; in test [1] (setting [3]) it was roughly 1 µM; on murine Aurora-A, greater than 100 µM; against HER2 cytoplasmic domain, 0.555 µM; in test [2] (Homo sapiens), greater than 100 µM; with HCT-116 colon carcinoma (setting [4]), greater than 100 µM. The IC50 in the test with A375 malignant melanoma (setting [5]) is greater than 100 µM.
For `CCCNC(=O)Nc1ccc(Oc2ncnc(N)c2C=NOC)cc1Cl` [Cpd 52, 1-{4-[6-amino-5-(methoxyimino-methyl)-pyrimidin-4-yloxy]-2-chloro-phenyl}-3-propyl-urea], the IC50 on CDK1:Cyclin-B was greater than 100 µM; in test [1] (IC50 VEGF-R2), 0.0275 µM; at murine Aurora-A, greater than 100 µM; against HER2 cytoplasmic domain, greater than 100 µM; in test [2] (Homo sapiens) it was greater than 1 µM; in the test on HCT-116 colon carcinoma (setting [4]), greater than 1 µM. In the test with A375 malignant melanoma (setting [5]), this molecule showed an IC50 greater than 1 µM.
For `CON=Cc1c(N)ncnc1Oc1ccc(NC(=O)Nc2ccc(OC)cc2)c(Cl)c1` [Cpd 63, 1-{4-[6-amino-5-(methoxyimino-methyl)-pyrimidin-4-yloxy]-2-chloro-phenyl}-3-(4-methoxy-phenyl)-urea], the IC50 against CDK1:Cyclin-B (setting [6]) was greater than 100 µM; in test [1] (setting [3]), 0.0022 µM; against murine Aurora-A (setting [6]), greater than 100 µM; on HER2 cytoplasmic domain, greater than 10 µM; in test [2], greater than 10 µM; with HCT-116 colon carcinoma (14C-thymidine incorporation), greater than 10 µM. In addition, the IC50 in the test on A375 malignant melanoma (14C-thymidine incorporation) is greater than 10 µM.
On to `CON=Cc1c(N)ncnc1Oc1ccc2c(c1)cc(C)n2C(=O)NCCCCN1CCCC1` [Cpd 42, 5-[6-amino-5-(methoxyimino-methyl)-pyrimidin-4-yloxy]-2-methyl-indole-1-carboxylic acid (4-pyrrolidin-1-yl-butyl)-amide], for which the IC50 against CDK1:Cyclin-B was greater than 100 µM; in test [1] (setting [3]), 0.0542 µM; against murine Aurora-A, greater than 100 µM; on HER2 cytoplasmic domain it was greater than 10 µM; in test [2] (Homo sapiens) it was greater than 10 µM; with HCT-116 colon carcinoma (setting [4]) it was greater than 10 µM. In the test with A375 malignant melanoma (setting [5]), this molecule returned an IC50 greater than 1 µM.
Take `CON=Cc1c(N)ncnc1Oc1ccc(NC(=O)Nc2ccccc2OC)c(Cl)c1` [Cpd 58, 1-{4-[6-amino-5-(methoxyimino-methyl)-pyrimidin-4-yloxy]-2-chloro-phenyl}-3-(2-methoxy-phenyl)-urea]: the IC50 on CDK1:Cyclin-B was greater than 100 µM; in test [1] (setting [3]), 0.0025 µM; on murine Aurora-A, greater than 100 µM; at HER2 cytoplasmic domain, 1.7 µM; in test [2] (Homo sapiens) it was 11.9 µM; in the test on HCT-116 colon carcinoma (setting [4]), 8.19 µM. The IC50 with A375 malignant melanoma (setting [5]) is 5.06 µM.
In the case of `CON=Cc1c(N)ncnc1Oc1ccc(NC(=O)Nc2cccc(F)c2)c(Cl)c1` [Cpd 57, 1-{4-[6-amino-5-(methoxyimino-methyl)-pyrimidin-4-yloxy]-2-chloro-phenyl}-3-(3-fluoro-phenyl)-urea], the IC50 is greater than 100 µM against CDK1:Cyclin-B; 0.0017 µM in test [1] (setting [3]); greater than 100 µM on murine Aurora-A; greater than 10 µM at HER2 cytoplasmic domain; greater than 10 µM in test [2] (Homo sapiens); greater than 10 µM with HCT-116 colon carcinoma (setting [4]). In the test with A375 malignant melanoma (setting [5]), this molecule returned an IC50 greater than 10 µM.
Consider `CON=Cc1c(N)ncnc1Oc1ccc(NC(=O)Nc2ccncc2)c(Cl)c1` [Cpd 88, 1-{4-[6-amino-5-(methoxyimino-methyl)-pyrimidin-4-yloxy]-2-chloro-phenyl}-3-pyridin-4-yl-urea], for which the IC50 against CDK1:Cyclin-B is greater than 100 µM; in test [1] (IC50 VEGF-R2), 0.011 µM; against murine Aurora-A, greater than 10 µM; at HER2 cytoplasmic domain it was greater than 10 µM; in test [2] (Homo sapiens) it was 7.39 µM; in the test on HCT-116 colon carcinoma (setting [4]), 4.69 µM. For the same molecule, the half-maximal inhibitory concentration (IC50) with A375 malignant melanoma (setting [5]) was 4.34 µM.
As for `CON=Cc1c(N)ncnc1Oc1ccc(NC(=O)Nc2nccs2)c(Cl)c1` [Cpd 91, 1-{4-[6-amino-5-(methoxyimino-methyl)-pyrimidin-4-yloxy]-2-chloro-phenyl}-3-thiazol-2-yl-urea], the 50% inhibitory concentration (IC50) at CDK1:Cyclin-B is greater than 100 µM; in test [1] (setting [3]) it was 0.0034 µM; against murine Aurora-A, greater than 10 µM; at HER2 cytoplasmic domain it was greater than 1 µM; in test [2] (Homo sapiens) it was 3.24 µM; in the test on HCT-116 colon carcinoma (setting [4]), 3.04 µM. This molecule also gave an IC50 with A375 malignant melanoma (setting [5]) of 0.929 µM.
As to `Cc1cc2c(F)c(Oc3ncnc(N)c3C=NOCCCCN3CCOCC3)ccc2[nH]1` [Cpd 26, 4-amino-6-(4-fluoro-2-methyl-1H-indol-5-yloxy)-pyrimidine-5-carbaldehyde O-(4-morpholin-4-yl-butyl)-oxime], the IC50 against CDK1:Cyclin-B is greater than 100 µM; in test [1] (setting [3]) it was 0.048 µM; against murine Aurora-A, greater than 100 µM; against HER2 cytoplasmic domain, 1.02 µM; in test [2] (Homo sapiens), greater than 100 µM; in the test with HCT-116 colon carcinoma (setting [4]), greater than 1 µM. In the test on A375 malignant melanoma (setting [5]), the IC50 was greater than 100 µM.
As to `CON=Cc1c(N)ncnc1Oc1ccc(NC(=O)Nc2ccc(F)cc2F)c(Cl)c1` [Cpd 61, 1-{4-[6-amino-5-(methoxyimino-methyl)-pyrimidin-4-yloxy]-2-chloro-phenyl}-3-(2,4-difluoro-phenyl)-urea], the IC50 against CDK1:Cyclin-B was greater than 100 µM; in test [1] (setting [3]) it was 0.003 µM; against murine Aurora-A, greater than 100 µM; on HER2 cytoplasmic domain, greater than 100 µM; in test [2] (Homo sapiens) it was greater than 100 µM; in the test on HCT-116 colon carcinoma (setting [4]), greater than 10 µM. The molecule also showed an IC50 in the test with A375 malignant melanoma (setting [5]) greater than 100 µM.
For the molecule `C=CCNC(=O)Nc1ccc(Oc2ncnc(N)c2C=NOC)cc1Cl` [Cpd 53, 1-allyl-3-{4-[6-amino-5-(methoxyimino-methyl)-pyrimidin-4-yloxy]-2-chloro-phenyl}-urea], the IC50 on CDK1:Cyclin-B is greater than 100 µM; in test [1] (setting [3]), 0.0191 µM; on murine Aurora-A, greater than 100 µM; against HER2 cytoplasmic domain, greater than 10 µM; in test [2] (Homo sapiens), greater than 1 µM; in the test on HCT-116 colon carcinoma (setting [4]) it was greater than 1 µM. In the test with A375 malignant melanoma (setting [5]), this molecule displayed a half-maximal inhibitory concentration (IC50) greater than 1 µM.
In the case of `CON=Cc1c(N)ncnc1Oc1ccc(NC(=O)NCCCO)c(Cl)c1` [Cpd 83, 1-{4-[6-amino-5-(methoxyimino-methyl)-pyrimidin-4-yloxy]-2-chloro-phenyl}-3-(3-hydroxy-propyl)-urea], the IC50 on CDK1:Cyclin-B was greater than 100 µM; in test [1] (IC50 VEGF-R2), 0.4 µM; on murine Aurora-A it was greater than 100 µM; against HER2 cytoplasmic domain, greater than 10 µM; in test [2] (Homo sapiens), 4.18 µM; in the test on HCT-116 colon carcinoma (setting [4]), 3.78 µM. In the test with A375 malignant melanoma (setting [5]), this molecule returned a half-maximal inhibitory concentration (IC50) of 3.94 µM.
Consider `CON=Cc1c(N)ncnc1Oc1ccc(NC(=O)NCCO)c(Cl)c1` [Cpd 81, 1-{4-[6-amino-5-(methoxyimino-methyl)-pyrimidin-4-yloxy]-2-chloro-phenyl}-3-(2-hydroxy-ethyl)-urea], for which the IC50 at CDK1:Cyclin-B is greater than 100 µM; in test [1] (setting [3]), 0.168 µM; at murine Aurora-A, greater than 100 µM; against HER2 cytoplasmic domain it was greater than 100 µM; in test [2] (Homo sapiens), 4.27 µM; in the test on HCT-116 colon carcinoma (setting [4]) it was 4.06 µM. Besides, half-maximal inhibition in the test with A375 malignant melanoma (setting [5]) (IC50) was put at 3.91 µM.
As to `CON=Cc1c(N)ncnc1Oc1ccc(NC(=O)Nc2ccccc2C)c(Cl)c1` [Cpd 75, 1-{4-[6-amino-5-(methoxyimino-methyl)-pyrimidin-4-yloxy]-2-chloro-phenyl}-3-o-tolyl-urea], the IC50 is greater than 100 µM at CDK1:Cyclin-B; 0.0079 µM in test [1] (setting [3]); greater than 100 µM at murine Aurora-A; greater than 100 µM against HER2 cytoplasmic domain; greater than 100 µM in test [2] (Homo sapiens); greater than 100 µM in the test on HCT-116 colon carcinoma (setting [4]). Moreover, the IC50 in the test with A375 malignant melanoma (setting [5]) was greater than 100 µM.
Take `Cc1cc2c(F)c(Oc3ncnc(N)c3C=NOCCCN3CCCCC3)ccc2[nH]1` [Cpd 20, 4-amino-6-(4-fluoro-2-methyl-1H-indol-5-yloxy)-pyrimidine-5-carbaldehyde O-(3-piperidin-1-yl-propyl)-oxime]: the IC50 was greater than 100 µM at CDK1:Cyclin-B; 0.037 µM in test [1] (setting [3]); greater than 100 µM at murine Aurora-A; 1.55 µM at HER2 cytoplasmic domain; 0.715 µM in test [2] (Homo sapiens); 2.78 µM with HCT-116 colon carcinoma (setting [4]). In the test with A375 malignant melanoma (setting [5]), the IC50 was 0.429 µM.

These data come from patent US8013153B2, “Substituted pyrimidine kinase inhibitors” (Janssen Pharmaceutica, N.V., priority 2006, dated 2011).
